# Measured values published in publication PMC6522510 (Nature Communications, 2019).
# Read-outs that look alike come from different tables or passages of the source. Numbered stars: 1 amine (or outer) side, 2 acyl side, 3 side chain; on linkers, the order of the positions; unused ones are H or OH. Bridge positions count the residues as written; N and C are the ends. Square brackets hold non-standard residues; d marks the D form. Peptide text beside a SMILES is read from it. I, II: the chains in the order shown. Actinocin(9to1) = Cc1c2oc3c(C)ccc(C(=O)[*:1])c3nc-2c(C(=O)[*:2])c(N)c1=O; NMeV = CN[C@H](C(=O)O)C(C)C; Sar = CNCC(=O)O
# Experiments:
# Test in all cases: Secondary dose-response HTS, Cell Titer Glo; call rule not given here
# Format in all cases: cell-based, human
# [1] = tested on: MOLM-13; conditions: MOLM-13; for EC50: Homo sapiens
# [2] = tested on: MV4-11; conditions: MV4-11; for EC50: Homo sapiens
# [3] = tested on: CHRF288-11; conditions: for EC50: Homo sapiens, HTS
# [4] = tested on: CMK; conditions: CMK; for EC50: Homo sapiens; for average effective concentration, CMK: secondary high-throughput screen
# [5] = tested on: CMS; conditions: for EC50: Homo sapiens
# [6] = tested on: M07e; conditions: for EC50: Homo sapiens, M-07e
# [7] = tested on: ML2; conditions: ML-2; for EC50: Homo sapiens
# [8] = tested on: U937; conditions: for EC50: Homo sapiens, U-937
# [9] = secondary high-throughput screen, read-out: average effective concentration, MOLM-13
# [10] = secondary high-throughput screen, read-out: average effective concentration, MV4-11
# [11] = secondary high-throughput screen, CHRF288-11
# [12] = secondary high-throughput screen, CMS
# [13] = secondary high-throughput screen, M07e
# [14] = secondary high-throughput screen
# [15] = secondary high-throughput screen, U937
"EC50 [1, 9] [nM]","EC50 [2, 10] [nM]",Compound,"average effective concentration, CHRF288-11 [3, 11]","average effective concentration, CMK [4]","average effective concentration, CMS [5, 12]","average effective concentration, M07e [6, 13]","average effective concentration, ML-2 [7, 14]","average effective concentration, U937 [8, 15]","average effective concentration, MOLM-13 [1, 14]","average effective concentration, MV4-11 [2, 14]",other results
> 10000,> 10000,C#Cc1cccc(Nc2ncnc3cc(OCCOC)c(OCCOC)cc23)c1 [ERLOTINIB],Inactive,Inactive,Inactive,Inactive,Inactive,Inactive,–,–,–
51,82,Cc1cnc(Nc2ccc(OCCN3CCCC3)cc2)nc1Nc1cccc(S(=O)(=O)NC(C)(C)C)c1 [FEDRATINIB],–,–,–,–,–,–,–,–,"EC50 ([3]; secondary high-throughput screen, CHRF288-11, read-out: average effective concentration, CHRF288-11): 760 nM; EC50 ([4]; read-out: average effective concentration, CMK): 240 nM; EC50 ([5]; HTS, read-out: average effective concentration, CMS): 700 nM; EC50 ([6]; secondary high-throughput screen, M07e, read-out: average effective concentration, M07e): 2000 nM; EC50 ([7]; secondary high-throughput screen, read-out: average effective concentration, ML-2): 2900 nM; EC50 ([8]; secondary high-throughput screen, U937, read-out: average effective concentration, U937): 2900 nM"
–,–,Cc1ccc(C(=O)COC(=O)c2cccc(NC(=O)c3ccc([N+](=O)[O-])cc3[N+](=O)[O-])c2)cc1 [FM19G11],Inactive,Inactive,Inactive,Inactive,Inactive,Inactive,Inactive,Inactive,–
–,–,Nc1[nH]nc2nnc(-c3c(-c4ccccc4)nn4ccccc34)cc12 [FR 180204],Inactive,Inactive,Inactive,Inactive,Inactive,Inactive,Inactive,Inactive,–
–,–,CSCC[C@H](NC(=O)[C@H](Cc1ccccc1)NC[C@@H](NC[C@@H](N)CS)C(C)C)C(=O)O [FTASE INHIBITOR I],Inactive,Inactive,Inactive,–,Inactive,Inactive,Inactive,Inactive,"average effective concentration, M07e ([6]; secondary high-throughput screen, […]): Inactive"
–,–,COC(=O)[C@H](CCSC)NC(=O)c1ccc(NC[C@@H](N)CS)cc1-c1ccccc1 [FTI-277],Inactive,Inactive,Inactive,Inactive,Inactive,Inactive,Inactive,Inactive,–
–,–,N[C@H](CCC(=O)N[C@@H](Cc1c[nH]c2ccccc12)C(=O)O)C(=O)O [GOLOTIMOD],Inactive,Inactive,Inactive,Inactive,Inactive,Inactive,Inactive,Inactive,–

Compound,"EC50 [1, 9] [nM]","EC50 [2, 10] [nM]","average effective concentration, CHRF288-11 [3, 11]","average effective concentration, CMK [4]","average effective concentration, CMS [5, 12]","average effective concentration, M07e [6, 13]","average effective concentration, ML-2 [7, 14]","average effective concentration, U937 [8, 15]","average effective concentration, MOLM-13 [1, 14]","average effective concentration, MV4-11 [2, 14]",other results
"Cc1c2oc3c(C)ccc(C(=O)N[C@@H]4C(=O)N[C@H](C(C)C)C(=O)N5CCC[C@H]5C(=O)N(C)CC(=O)N(C)[C@@H](C(C)C)C(=O)O[C@@H]4C)c3nc-2c(C(=O)N[C@@H]2C(=O)N[C@H](C(C)C)C(=O)N3CCC[C@H]3C(=O)N(C)CC(=O)N(C)[C@@H](C(C)C)C(=O)O[C@@H]2C)c(N)c1=O [Dactinomycin, reference compound] (I: T[dV]P[Sar][NMeV] / II: T[dV]P[Sar][NMeV]; ester I:1-I:C, II:1-II:C; linker I:N-II:N via Actinocin(9to1))",29,43,–,–,–,–,–,–,–,–,"EC50 ([1]; secondary HTS, 72 h, average of triplicate, read-out: EC50 MOLM-13): 30 nM; EC50 ([2]; secondary HTS, 72 h, average of triplicate, read-out: EC50 MV4-11): 40 nM; EC50 ([3]; 72 h, secondary HTS, 72 h, average of triplicate, read-out: EC50 CHRF288-11): 1 nM; EC50 ([4]; secondary HTS, 72 h, average of triplicate, read-out: EC50 CMK): 1 nM; EC50 ([5]; HTS, secondary high-throughput screen, CMS, read-out: average effective concentration, CMS): 36 nM; EC50 ([5]; secondary HTS, 72 h, average of triplicate, read-out: EC50 CMS): 40 nM; EC50 ([6]; secondary HTS, 72 h, average of triplicate, read-out: EC50 M07e): 1 nM; EC50 ([7]; secondary HTS, 72 h, average of triplicate, read-out: EC50 ML2): 1 nM; EC50 ([8]; secondary HTS, 72 h, average of triplicate, read-out: EC50 U937): 1 nM"
